Measurements taken from PubChem BioAssay (NCI).
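Test compounds were applied to cells in 96-well plates for 48 hours at 5 doses. GI50 = concentration required for 50% inhibition of growth. The concentration for full growth arrest is given as TGI.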

Columns and labels:
Assay in all cases: NCI tumour cell line growth inhibition, 48 h
[1] = test system: HL-60(TB) leukemia
[2] = test system: NCI-H460 lung
[3] = test system: OVCAR-3 ovarian
[4] = test system: SF-539 CNS
[5] = test system: SK-MEL-2 melanoma
[6] = test system: SK-MEL-5 melanoma
[7] = test system: SN12C renal
[8] = test system: U251 CNS
[9] = test system: UO-31 renal
[10] = test system: CCRF-CEM leukemia

| SMILES | GI50 [1] [µM] | TGI [1] [µM] | GI50 [2] [µM] | TGI [2] [µM] | GI50 [3] [µM] | TGI [3] [µM] | GI50 [4] [µM] | TGI [4] [µM] | GI50 [5] [µM] | TGI [5] [µM] | GI50 [6] [µM] | TGI [6] [µM] | GI50 [7] [µM] | TGI [7] [µM] | GI50 [8] [µM] | TGI [8] [µM] | GI50 [9] [µM] | TGI [9] [µM] | TGI [10] [µM] | GI50 [10] [µM] |
| --- | --- | --- | --- | --- | --- | --- | --- | --- | --- | --- | --- | --- | --- | --- | --- | --- | --- | --- | --- | --- |
| C=C(CN1CCN(c2ccccn2)CC1)c1ccc(C(=O)Nc2ccccc2N)cc1 | 2.2 | > 50 | 2.81 | > 50 | 1.25 | 4.39 | 1.5 | 8.87 | 1.87 | > 50 | 0.726 | 1.75 | 2.35 | > 50 | 1.48 | > 50 | 1.8 | 7.57 |  |  |
| Fc1ccc(-c2ncn(C3CCNCC3)c2-c2ccnc(Oc3ccc(Cl)cc3)n2)cc1 | 4.96 | 11.6 | 3.79 | 7.49 | 4.09 | 7.9 | 4.2 | 8.39 | 4.45 | 8.67 | 3.22 | 6.41 | 3.67 | 7.17 | 3.66 | 7.24 | 3.38 | 12.2 |  |  |
| CC(NC1CCCC[C@@H]1O)c1ccccc1 (some centres undefined) |  | > 100 |  | > 100 |  | > 100 |  |  |  | > 100 |  | > 100 |  | > 100 |  | > 100 |  | > 100 | > 100 |  |
| Nc1ccc(C(=O)N/C(=C\c2ccc3c(c2)OCO3)c2nc3ccccc3s2)cc1 |  |  |  |  |  | 30.8 |  | 31.4 |  | 28 |  | 29.2 |  | 25.6 |  | 26.4 |  | 29 | 7.28 |  |
| CCOC1=C/C(=N\Nc2ccc([N+](=O)[O-])cc2)CCC1 |  | > 100 |  | > 100 |  | > 100 |  | > 100 |  | 58.1 |  | 73.3 |  | > 100 |  | 54.1 |  | 35.1 |  |  |
| COc1ccc(-c2cn3ccnc3c(-c3ccc(Cl)cc3)n2)cc1 | 5.14 | > 100 | 10.8 | > 100 | 3.19 | 71.8 | 8.97 | 58 | 35.2 | > 100 | 4.06 | 21.1 | 10.4 | 46 |  |  | 33.1 | > 100 |  |  |
| O=C(Nc1ccccc1)N1C(c2ccccc2)=N[C@@H](c2ccccc2)[C@@H]1c1ccccc1 |  | 46.5 |  | > 100 |  | 62.8 |  | 33.7 |  |  |  | 26.8 |  | 47.2 |  |  |  | 30.6 | 60 |  |
| C=C1C(=O)O[C@@H]2C[C@@H](C)[C@@H]3C=CC(=O)[C@@]3(C)[C@@H](OC(=O)CCCC(=O)O[C@H]3[C@@H]4C(=C)C(=O)O[C@@H]4C[C@@H](C)[C@@H]4C=CC(=O)[C@]43C)[C@H]12 |  |  |  | 0.955 |  | 0.275 |  | 0.185 |  | 0.34 |  | 0.293 |  | 0.0938 |  | 0.377 |  | 0.289 | 1.45 |  |
| COc1ccccc1/C=C(\NC(=O)c1ccccc1)c1nc2ccccc2[nH]1 |  |  |  | > 100 |  | > 100 |  | > 100 |  | > 100 |  | 48 |  | > 100 |  | > 100 |  | > 100 | > 100 |  |
| CN(C)C(=S)/N=c1\ssc(=Nc2ccccc2)n1-c1ccccc1 |  | > 100 |  |  |  | 28.3 |  | 32 |  | > 100 |  |  |  | > 100 |  | 70.7 |  | > 100 | > 100 |  |
| CCCCS(=O)(=O)c1cc(Nc2ccc(O)c3c2C(=O)c2ccccc2C3=O)ccc1C | > 100 | > 100 | 0.431 | > 100 |  |  | > 100 | > 100 | 26.5 | > 100 |  |  | > 100 | > 100 | 35.8 | > 100 | > 100 | > 100 | > 100 | > 100 |
| NCCOCCOCC(=O)O |  |  |  |  |  | > 100 |  | > 100 |  | > 100 |  | > 100 |  | > 100 |  | > 100 |  | > 100 |  |  |
| OC(Cc1cccc2ccccc12)CN1CCC(c2ccccc2)CC1 (centres undefined) |  | 41.2 |  | 28.4 |  | 30.5 |  | 31.1 |  |  |  | 24.4 |  | 30.6 |  | 26.2 |  | 0.176 | 62.6 |  |
| Cc1cc(C)nc(NC(=O)COc2ccc(Cl)cc2)c1 |  |  |  | > 100 |  | > 100 |  | > 100 |  | > 100 |  | > 100 |  | > 100 |  | > 100 |  |  |  |  |
| CC(=O)/C(=N\N=C(N)N)c1ccccc1 |  |  |  | > 100 |  | > 100 |  | > 100 |  | > 100 |  | > 100 |  | > 100 |  | > 100 |  | > 100 |  |  |
| COc1cc(N)c(Cl)cc1C(=O)N[C@@H]1CCN(CCCOc2ccc(F)cc2)C[C@@H]1OC | 82.4 | > 100 | 66.9 | > 100 | > 100 | > 100 | 66.2 | > 100 | > 100 | > 100 | 17.8 | > 100 | > 100 | > 100 | > 100 | > 100 | 27.9 | > 100 |  |  |
| Cc1cc(O)c2c(c1)OC1(C)CCC3C(C)(C)CCCC34COC2C14 (centres undefined) |  | 63.7 |  | 30.6 |  | 26.8 |  | 23.8 |  |  |  | 27.5 |  | 30.8 |  |  |  | 33.2 | 42.7 |  |
| NC(=S)c1cccc(C2Nc3ccccc3O2)c1 (centres undefined) |  | > 100 |  | > 100 |  | > 100 |  | > 100 |  | > 100 |  | > 100 |  | 12.1 |  | > 100 |  | > 100 |  |  |
| O=C(O)C1CC2C=CCC(C2)C1 (centres undefined) |  | > 100 |  | > 100 |  | > 100 |  |  |  | > 100 |  | > 100 |  |  |  | > 100 |  | > 100 | > 100 |  |
| COC(=O)CCC(NC(=S)N/N=C(\C)c1cccs1)C(=O)OC (centres undefined) |  |  |  | > 100 |  | > 100 |  | > 100 |  | > 100 |  | > 100 |  | > 100 |  | > 100 |  | > 100 |  |  |
| COC(=O)C1=C(O)c2cc(OC)c(OC)c(OC)c2C(c2ccc3c(c2)OCO3)[C@@H]1C(=O)OC (some centres undefined) |  | 5.49 |  | > 100 |  | 5.3 |  | 5.52 |  | > 100 |  |  |  | > 100 |  | > 100 |  | > 100 | > 100 |  |
